From patent publication US20150210984A1, “METHOD FOR R[…] IN VITRO” (priority 2011, published 2015) come the findings set out here.

The test system of this assay is HCV Genotype 3. The assay can be described thus: Patient-derived monocytes fused to hepatocytes, HCV RNA by qPCR. The assay is classed as cell-based. Conditions: fused cells from patients with genotype 3 HCV; 3 to 7 days with telaprevir; FIG. 8. The procedure: Patient derived monocytes from patients with genotype 1 and genotype 3 HCV were taken and incubated for a variety of different times (ranging from 3 to 7 days) with telaprevir at concentrations known to inhibit HCV RNA. The amount of HCV RNA was assessed using a standard qPCR technique and is expressed as the raw Ct value from the Corbett Rotorgene.
CD14+ monocytes were positively selected from total PBMCs by magnetic cell separation, according to the manufacturer's instructions. The CD14+ cells obtained were counted and pelleted with an equal number of HuH 7.5 cells. The cell pellet was resuspended in pre-warmed polyethylene glycol 1500 (PEG 1500, Roche) over 1 minute then incubated at 37° C. for 2 minutes. […]
RNA was extracted from fused cells immediately after fusion and following a 5 day incubation using TRIzol reagent (Invitrogen). Total RNA obtained was quantified using the RiboGreen assay (Invitrogen). HCV RNA was measured by reverse transcription-quantitative PCR (RT-qPCR) using the Quantitect viral nucleic acid detection kit (Qiagen) in 20 μL volumes with a TaqMan primer and probe for HCV detection (Applied Biosystems). 10-fold serial dilutions of PCR product corresponding to a 319 nucleotide segment between the 5′untranslated region and E1 region of the HCV genome were included as a quantitative standard. […]
(In general: Real-time PCR tracks product formation cycle by cycle.)

Each structure is given as a SMILES string.

In the case of `CCC[C@H](NC(=O)[C@@H]1[C@H]2CCC[C@H]2CN1C(=O)[C@@H](NC(=O)[C@@H](NC(=O)c1cnccn1)C1CCCCC1)C(C)(C)C)C(=O)C(=O)NC1CC1` [telaprevir], the “replication of HCV (HCV RNA)” value is “not inhibited”.
